{"source": "patent US20110158947A1", "about": "“SULFONYLUREA RECEPTOR AND MEANS FOR TREATING ISCHAEMIA” (priority 2008, published 2011)", "key": {"[1]": {"system": "cardiomyocytes", "assay": "Intracellular Ca2+ (Fluo-3) in cardiomyocytes exposed to isoprenaline", "type": "cell-based, mouse", "details": "100 μM, n=6", "text": "Ventricular cardiomyocytes were dissociated from the mouse using an established enzymatic procedure. Mitochondrial membrane potential was monitored in cells exposed to hypoxia as described. To measure the mitochondrial membrane potential cells were loaded with JC-1 according to the manufacturer's instructions (Invitrogen, Paisley, UK) and continously monitored with LSM-510. Fluorescence was imaged at 488 nm excitation wavelength and emission was captured at 530 and 590 nm for green and red channels respectively; the JC-1 ratio refers always to green/red ratio. The moment of cell death was defined as the point when the cell has become rounded (ratio of diameters<2). In addition to mitochondrial membrane potential, intracellular Ca^2+ levels were also measured using Fluo-3, Ca^2+-sensitive dye [described in 11-13]."}, "[2]": {"system": "H9C2 cells", "assay": "Cell survival assay (Multitox-Fluor) under DNP metabolic stress", "type": "cell-based, rat", "details": "control (GFP-infected) H9C2 cells, DNP 10 mM, n=14", "protocol": "H9C2 cells Rat embryonic heart H9c2 cells (ECACC, Salisbury, UK) were cultured in a tissue flask (at 5% CO2) containing Dulbecco's modified Eagle's medium supplemented with 10% fetal calf serum and 2 mM glutamine. For electrophysiological experiments, the cells were plated on a 35×10-mm culture dish containing 25-mm glass cover-slips. The cells were cultured in incubators (Galaxy, oxygen control model, RS Biotech, Irvine, UK). […] The recombinant SUR2A adenovirus (AV-SUR2A) was generated using the AdEasy XL Adenoviral Vector System (Stratagene). SUR2A gene was cloned into a shuttle vector pShuttle-CMV by PCR using the following primers containing restrict enzyme sites Bgl II/Xho I, sense, 5′-GCAGATCT GGCAGGCTGTTGGTAGCTCA-3′, antisense, 5′-GCCTCGAG CTACTTGTTGGTCATCACCA-3. […] The virus titer is determined using QuickTiter Adenovirus Titer Immunoassay Kit (Cell Biolabs, Inc) according to manufacturer's instructions. […]\nThe survival of H9C2 cells were assayed using Multitox-Fluor Multiplex Cytotoxicity Assay (Promega). […] Following 30 min-long incubation at 37° C., plates were measured using 1420 Multibabel Counter (Victor) plate reader, with excitation at 370 nm and emissions of 480 nm. The percentage of live cells was calculated based on the intensity of fluorescence according to the manufacturer instructions."}, "[3]": {"system": "male mice", "assay": "Treadmill endurance test", "type": "in vivo", "details": "one week, n=6", "protocol": "All experiments have been done on male mice. Mice were on RM1 ad libidum diet (SDS, UK) and RM1 diet supplemented with nicotinamide (0.1, 0.5, 2.5, 12.5 g of nicotinamide per kg of diet which would lead to daily intake of 0.04 mg of nicotinamide in control diet and 0.4 mg, 2 mg, 10 mg and 50 mg in nicotinamide-rich diets). All mice were of similar age and weight. Mice were on these diets for a week. To assess physical endurance in these mice, we have used treadmill endurance test. A six lane treadmill (Columbus Instruments, Columbus, Ohio) was used to perform treadmill tests. The exercise-induced stress protocol consisted of a step-wise increase in velocity at constant incline. Before the experiments, animals were acclimatized to the treadmill for 30 minutes; 10 minutes at 0 m/min, 10 minutes at 3 m/min followed by 10 minutes at 6 m/min two days prior to the treadmill endurance test. The treadmill endurance test consisted of a step-wise increase in velocity over time at constant incline. The animal was made to run at 3, 5, 8 (all at m/min) for 3 min intervals followed by 9, 10, 11, 12, 13, 14, 15 (all at m/min) for 5 min intervals and then at a constant velocity of 16 m/min until exhaustion. After the test, mice were sacrificed, hearts harvested and SUR2A mRNA levels measured. More specifically, total RNA was extracted from cardiac ventricular tissue of transgenic and wild type mice using TRIZOL reagent (Invitrogen, Paisley, UK) according to the manufacturer's recommendations. Extracted RNA was further purified with RNeasy Mini Kit (Qiagen, Crawley, UK) according to the manufacturer's instruction. The for mouse SUR2A were designed as follows: sense, […], antisense, […]. The reverse transcription (RT) reaction was carried out with ImProm-II Reverse Transcriptase (Promega, Southampton, UK). […] Efficiency is evaluated by the slope of the regression curve obtained with several dilutions of the cDNA template. […] Threshold cycle values, PCR efficiency (examined by serially diluting the template cDNA and performing PCR under these conditions) and PCR specificity (by constructing the melting curve) were determined by the same software. […] The relative expression ratio(R) of a gene encoding KATP channel subunit is calculated using equation R=(EK)^ΔCPk^(CD-ND)/(ER)^ΔCPR^(CD-ND) where EK is the real time PCR efficiency of SUR2A gene transcript, ER is the real time PCR efficiency of GAPDH gene, ΔCPK is the crossing point deviation of control diet-nicotinamide diet of SUR2A gene transcript while ΔCPR is the crossing point deviation of control diet-nicotinamide diet of GAPDH gene transcript."}, "[4]": {"system": "SUR2A mRNA", "assay": "Real time RT-PCR of myocardial SUR2A mRNA in mice on nicotinamide-rich diet", "type": "in vivo", "details": "n=6", "text": "Real time RT-PCR Total RNA was extracted from cardiac ventricular tissue of transgenic and wild type mice using TRIZOL reagent (Invitrogen, Paisley, UK) according to the manufacturer's recommendations. Extracted RNA was further purified with RNeasy Mini Kit (Qiagen, Crawley, UK) according to the manufacturer's instruction. The specific primers for mouse SUR2A, Kir6.2, Kir6.1, SUR1 and SUR2B (designed to amplify SUR2B and natively present SUR2A) were designed as follows: For SUR2A: sense, […], antisense, […]; for Kir6.2: sense; […], antisense, […]; for Kir6.1: sense, 5′-[…]-3, antisense, 5-[…]-3′; for SUR1: sense, 5′-GGAAGGACTCACCACCATC-3′, antisense, 5′-GAGACCATCAAGGCGTAGG-3′; for SUR2B: sense, 5′-GATGCCACTGTCACCGAAG-3′, antisense, 5-[…]-3′. The real time RT-PCR was performed as described in ref. 14.\nNicotinamide was administered orally, i.e. as a dietary supplement. Mice were fed with nicotinamide-rich diet (ad libidum; 500 mg of nicotinamide per 1 kg of food) for 3 weeks. Estimated daily intake was 2.5 mg. For some in vitro experiments, cardiac cells were incubated for 24 hours in a DMEM medium containing 10% fetal calf serum, 2 mM glutamine and 20 mM NAD or NADH.\nAll experiments have been done on male mice. […] After the test, mice were sacrificed, hearts harvested and SUR2A mRNA levels measured. […]"}}}
{"smiles": "CC(C)NCC(O)c1ccc(O)c(O)c1", "note": "(stereo not drawn) [isoprenaline]", "values": [{"measurement": "relative fluo-3 fluorescence (calcium levels)", "setting": "[1]; cardiomyocytes from transgenic SUR2A mice", "value": "78±16.6"}, {"measurement": "relative fluo-3 fluorescence (calcium levels)", "setting": "[1]; cardiomyocytes from wild type mice", "value": "127.2±13.8"}]}
{"smiles": "O=[N+]([O-])c1ccc(O)c([N+](=O)[O-])c1", "note": "[DNP]", "values": [{"measurement": "cells that survived DNP", "setting": "[2]", "value": "43.3±1.8", "unit": "%"}]}
{"smiles": "NC(=O)c1cccnc1", "note": "[nicotinamide]", "values": [{"measurement": "time on treadmill", "setting": "[3]; 0.1 g/kg nicotinamide in diet", "value": "144.0 ± 14.9", "unit": "min"}, {"measurement": "time on treadmill", "setting": "[3]; 0.5 g/kg nicotinamide in diet", "value": "95.3 ± 18.1", "unit": "min"}, {"measurement": "time on treadmill", "setting": "[3]; 2.5 g/kg nicotinamide in diet", "value": "103.7 ± 20.4", "unit": "min"}, {"measurement": "time on treadmill", "setting": "[3]; 12.5 g/kg nicotinamide in diet", "value": "88.2 ± 12.5", "unit": "min"}, {"measurement": "threshold cycle, SUR2A mRNA in the heart", "setting": "[4]; 0.1 g/kg nicotinamide-rich diet, one week, after treadmill test", "value": "21.8±0.8"}, {"measurement": "threshold cycle, SUR2A mRNA in hearts", "setting": "[4]; nicotinamide-rich diet, 500 mg per 1 kg of food, 3 weeks, lower cycle = more mRNA", "value": "23.57±1.47"}]}
